Reference: ChEMBL document CHEMBL1201862, “PubChem BioAssay data set” (2004)
Calls of active or inactive are those of the source.

How the values were obtained:
[1] = biological target: T1, Alkaline phosphatase, tissue-nonspecific isozyme (Homo sapiens, UniProt P05186)
T1 sequence (P05186 whole entry): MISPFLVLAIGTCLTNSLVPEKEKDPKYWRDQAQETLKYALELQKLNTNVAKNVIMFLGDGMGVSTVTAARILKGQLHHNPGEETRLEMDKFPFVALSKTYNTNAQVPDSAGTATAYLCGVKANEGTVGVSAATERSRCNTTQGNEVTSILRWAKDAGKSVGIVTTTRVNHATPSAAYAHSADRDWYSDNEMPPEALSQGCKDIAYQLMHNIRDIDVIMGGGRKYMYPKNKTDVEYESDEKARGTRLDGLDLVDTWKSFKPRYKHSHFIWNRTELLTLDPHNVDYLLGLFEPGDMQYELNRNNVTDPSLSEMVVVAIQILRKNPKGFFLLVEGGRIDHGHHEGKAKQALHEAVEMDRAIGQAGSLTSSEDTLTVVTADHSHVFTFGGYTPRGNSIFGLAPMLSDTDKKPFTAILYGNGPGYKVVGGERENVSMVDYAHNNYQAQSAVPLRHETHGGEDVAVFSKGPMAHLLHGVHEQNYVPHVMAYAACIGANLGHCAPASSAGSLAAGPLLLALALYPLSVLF

[2] = biological target: T2, Heat shock factor protein 1 (Mus musculus, UniProt P38532); assay: inhibition of MG132-induced HSE-luciferase signal, confirmation, cell-based, NIH3T3, luminescence, dose retest (AID 2382); assay type: functional;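 further: NIH3T3 fibroblasts with HSF1-driven luciferase reporter stressed by proteasome inhibitor MG132; luminescence from HSF1-driven luciferase expression after 8 hours of MG132 stress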
T2 sequence (P38532 whole entry): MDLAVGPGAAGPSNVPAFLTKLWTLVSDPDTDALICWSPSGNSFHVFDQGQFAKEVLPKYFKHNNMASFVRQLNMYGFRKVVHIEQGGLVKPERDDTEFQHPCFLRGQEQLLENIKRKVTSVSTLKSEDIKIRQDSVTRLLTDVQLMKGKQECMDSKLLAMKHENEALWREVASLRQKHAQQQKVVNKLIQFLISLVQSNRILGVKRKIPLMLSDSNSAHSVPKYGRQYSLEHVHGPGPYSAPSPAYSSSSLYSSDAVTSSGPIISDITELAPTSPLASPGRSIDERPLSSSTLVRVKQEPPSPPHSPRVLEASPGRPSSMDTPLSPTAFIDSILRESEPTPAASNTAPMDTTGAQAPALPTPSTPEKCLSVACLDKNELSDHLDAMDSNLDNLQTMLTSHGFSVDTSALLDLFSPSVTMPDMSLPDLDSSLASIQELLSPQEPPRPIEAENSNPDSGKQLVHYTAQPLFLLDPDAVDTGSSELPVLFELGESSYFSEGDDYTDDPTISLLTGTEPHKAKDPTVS

[3] = A High Throughput Confirmatory Assay used to Identify Novel Compounds that Inhibit Mycobacterium Tuberculosis in the absence of Glycerol.; assay type: functional
[4] = microbe, parasite or virus in culture; assay type: functional; details: Mycobacterium tuberculosis
Protein Tat = biological target: T3, Protein Tat (Human immunodeficiency virus type 1 group M subtype B (isolate HXB2)(HIV-1), UniProt P04608); assay type: functional;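 further: tat binding to TAR RNA read out by fluorescence polarization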
T3 sequence (P04608 whole entry): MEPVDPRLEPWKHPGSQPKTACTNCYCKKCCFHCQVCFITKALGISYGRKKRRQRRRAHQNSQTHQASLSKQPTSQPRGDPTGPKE

[5] = THP-1 cell cytotoxicity, dose response, cytotoxicity control for Vif-APOBEC3G degradation inhibitor project, THP-1 cells (AID 1117359); assay type: functional; details: Human immunodeficiency virus 1, THP-1
Aminopeptidase N = Aminopeptidase N (Plasmodium falciparum FcB1/Columbia, UniProt O96935); assay: P. falciparum M1AAP inhibitors, biochemical, fluorogenic H-Leu-NHMec substrate, 1536-well (AID 1445); set-up: species or system Plasmodium falciparum 3D7, 3D7
Aminopeptidase N, sequence (O96935 whole entry): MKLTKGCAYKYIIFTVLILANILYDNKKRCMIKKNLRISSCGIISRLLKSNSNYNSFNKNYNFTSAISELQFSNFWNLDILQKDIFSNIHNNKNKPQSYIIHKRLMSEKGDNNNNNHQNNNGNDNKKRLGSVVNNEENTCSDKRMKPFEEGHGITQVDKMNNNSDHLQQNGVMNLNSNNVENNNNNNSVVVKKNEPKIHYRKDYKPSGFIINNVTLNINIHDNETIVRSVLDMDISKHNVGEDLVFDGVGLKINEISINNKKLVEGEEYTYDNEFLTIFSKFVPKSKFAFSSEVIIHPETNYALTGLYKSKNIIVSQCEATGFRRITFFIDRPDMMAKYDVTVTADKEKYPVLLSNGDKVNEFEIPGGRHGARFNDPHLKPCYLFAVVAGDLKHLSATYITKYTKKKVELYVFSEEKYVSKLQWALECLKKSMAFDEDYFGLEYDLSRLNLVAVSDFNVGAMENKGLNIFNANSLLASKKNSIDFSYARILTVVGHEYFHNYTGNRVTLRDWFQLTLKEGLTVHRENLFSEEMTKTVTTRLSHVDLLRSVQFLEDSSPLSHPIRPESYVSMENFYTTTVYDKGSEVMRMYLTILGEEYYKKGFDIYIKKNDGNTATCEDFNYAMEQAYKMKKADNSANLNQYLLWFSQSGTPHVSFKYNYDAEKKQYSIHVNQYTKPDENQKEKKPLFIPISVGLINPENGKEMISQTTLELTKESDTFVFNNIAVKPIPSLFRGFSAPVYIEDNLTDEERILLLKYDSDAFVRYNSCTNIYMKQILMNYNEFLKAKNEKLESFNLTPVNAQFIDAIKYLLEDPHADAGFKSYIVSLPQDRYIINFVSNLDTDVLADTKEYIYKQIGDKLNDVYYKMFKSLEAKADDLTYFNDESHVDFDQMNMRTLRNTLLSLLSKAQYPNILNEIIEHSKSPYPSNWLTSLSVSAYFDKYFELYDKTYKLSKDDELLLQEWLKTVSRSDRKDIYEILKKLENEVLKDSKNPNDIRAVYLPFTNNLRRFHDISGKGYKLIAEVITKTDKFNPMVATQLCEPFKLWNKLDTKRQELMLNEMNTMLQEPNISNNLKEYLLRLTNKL

Hexokinase HKDC1 = Hexokinase HKDC1 (Homo sapiens, UniProt Q2TB90); assay: HKDC1 hexokinase inhibitors, dose response, biochemical, W721R variant (AID 504729); assay type: functional
Hexokinase HKDC1, sequence (Q2TB90 whole entry): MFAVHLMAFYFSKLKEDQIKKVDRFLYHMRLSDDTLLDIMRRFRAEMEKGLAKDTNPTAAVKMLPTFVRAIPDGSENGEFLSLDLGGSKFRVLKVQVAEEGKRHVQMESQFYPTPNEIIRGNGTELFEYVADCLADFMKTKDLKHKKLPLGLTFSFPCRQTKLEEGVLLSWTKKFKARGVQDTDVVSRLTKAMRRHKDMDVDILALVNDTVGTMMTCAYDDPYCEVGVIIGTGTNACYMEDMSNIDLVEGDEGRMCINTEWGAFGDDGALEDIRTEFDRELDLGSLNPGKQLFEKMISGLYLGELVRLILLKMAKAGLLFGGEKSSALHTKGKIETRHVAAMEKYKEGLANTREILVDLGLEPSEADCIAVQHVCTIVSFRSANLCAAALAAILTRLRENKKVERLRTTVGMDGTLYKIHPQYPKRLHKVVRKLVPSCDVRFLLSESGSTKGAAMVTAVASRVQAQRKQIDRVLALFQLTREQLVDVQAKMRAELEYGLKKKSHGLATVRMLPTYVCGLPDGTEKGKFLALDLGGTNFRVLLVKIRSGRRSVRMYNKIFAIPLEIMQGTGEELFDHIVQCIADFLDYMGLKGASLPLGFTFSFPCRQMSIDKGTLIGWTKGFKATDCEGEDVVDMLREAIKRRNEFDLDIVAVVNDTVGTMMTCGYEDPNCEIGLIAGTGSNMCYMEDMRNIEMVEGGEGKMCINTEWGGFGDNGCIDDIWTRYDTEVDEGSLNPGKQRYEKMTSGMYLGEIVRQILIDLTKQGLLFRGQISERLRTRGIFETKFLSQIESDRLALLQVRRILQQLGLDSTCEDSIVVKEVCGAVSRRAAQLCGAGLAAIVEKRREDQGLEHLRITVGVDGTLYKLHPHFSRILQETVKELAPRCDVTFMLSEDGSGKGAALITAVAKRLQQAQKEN

Vero = Vero cell cytotoxicity, cytotoxicity control for flavivirus capping enzyme inhibitors (AID 588742); assay type: functional; details: Chlorocebus sabaeus
Genome polyprotein = Genome polyprotein (dengue virus type 2, UniProt P29990); assay: Dengue-2 NS5 methyltransferase inhibitors, primary screen, biochemical, confirmation dose response (AID 588689); assay type: functional
Genome polyprotein, sequence (P29990 2492-3391 limits assumed): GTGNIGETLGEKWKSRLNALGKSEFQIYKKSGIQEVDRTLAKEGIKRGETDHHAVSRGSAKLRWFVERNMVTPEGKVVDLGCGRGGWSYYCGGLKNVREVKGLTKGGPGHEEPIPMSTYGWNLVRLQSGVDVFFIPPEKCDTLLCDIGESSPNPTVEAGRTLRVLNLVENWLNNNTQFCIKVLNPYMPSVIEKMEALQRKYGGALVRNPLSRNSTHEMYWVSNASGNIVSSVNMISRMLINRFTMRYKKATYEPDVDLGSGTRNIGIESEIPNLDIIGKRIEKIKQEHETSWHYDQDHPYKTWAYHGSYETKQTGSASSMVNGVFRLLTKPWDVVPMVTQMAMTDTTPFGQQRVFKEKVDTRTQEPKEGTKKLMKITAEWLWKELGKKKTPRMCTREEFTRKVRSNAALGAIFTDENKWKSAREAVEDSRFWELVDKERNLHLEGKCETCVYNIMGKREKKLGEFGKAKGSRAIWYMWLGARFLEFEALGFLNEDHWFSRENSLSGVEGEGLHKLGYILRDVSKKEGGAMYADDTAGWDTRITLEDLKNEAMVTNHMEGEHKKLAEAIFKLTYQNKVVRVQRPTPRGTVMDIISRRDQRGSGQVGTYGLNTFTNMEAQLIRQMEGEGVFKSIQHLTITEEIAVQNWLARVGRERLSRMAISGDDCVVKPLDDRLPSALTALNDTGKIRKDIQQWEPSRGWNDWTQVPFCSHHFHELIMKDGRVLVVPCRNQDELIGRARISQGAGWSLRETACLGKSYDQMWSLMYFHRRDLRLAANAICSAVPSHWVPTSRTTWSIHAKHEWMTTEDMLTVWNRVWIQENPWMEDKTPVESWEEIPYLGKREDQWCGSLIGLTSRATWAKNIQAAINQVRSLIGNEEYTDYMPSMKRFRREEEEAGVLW

[6] = biological target: T4, Corticotropin-releasing factor receptor 2/Corticotropin-releasing factor-binding protein (Homo sapiens, UniProt P24387+Q13324); assay: activators of CRF receptor 2 with binding protein – uHTS hits, confirmation (AID 602473); assay type: functional; details: read-out: EC50_Mean
T4 sequence (Q13324 whole entry): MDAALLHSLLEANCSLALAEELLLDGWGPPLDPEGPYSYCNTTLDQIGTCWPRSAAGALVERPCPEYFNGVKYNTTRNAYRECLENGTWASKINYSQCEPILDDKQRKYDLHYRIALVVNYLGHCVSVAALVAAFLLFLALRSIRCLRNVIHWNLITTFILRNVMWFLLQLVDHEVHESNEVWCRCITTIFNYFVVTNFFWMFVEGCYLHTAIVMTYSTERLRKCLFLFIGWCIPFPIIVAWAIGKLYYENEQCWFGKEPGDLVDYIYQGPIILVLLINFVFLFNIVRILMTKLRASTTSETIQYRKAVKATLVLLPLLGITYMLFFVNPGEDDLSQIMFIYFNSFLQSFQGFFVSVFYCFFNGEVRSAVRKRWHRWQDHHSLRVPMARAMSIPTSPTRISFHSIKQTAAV
T4 sequence (P24387 whole entry): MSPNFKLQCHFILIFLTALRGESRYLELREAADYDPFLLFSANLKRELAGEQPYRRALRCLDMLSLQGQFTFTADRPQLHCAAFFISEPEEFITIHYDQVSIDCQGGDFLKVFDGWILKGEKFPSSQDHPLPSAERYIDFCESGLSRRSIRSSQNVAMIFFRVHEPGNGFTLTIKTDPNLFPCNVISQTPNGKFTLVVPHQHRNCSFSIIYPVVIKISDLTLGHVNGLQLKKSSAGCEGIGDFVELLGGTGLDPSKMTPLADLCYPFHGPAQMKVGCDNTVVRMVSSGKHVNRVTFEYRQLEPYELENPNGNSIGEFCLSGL

Estrogen receptor = biological target: T5, Estrogen receptor (Homo sapiens, UniProt P03372); assay: potentiators of ERα–SRC-1 coactivator binding, dose response, biochemical, TR-FRET, ERα LBD (AID 737)
T5 sequence (P03372 whole entry): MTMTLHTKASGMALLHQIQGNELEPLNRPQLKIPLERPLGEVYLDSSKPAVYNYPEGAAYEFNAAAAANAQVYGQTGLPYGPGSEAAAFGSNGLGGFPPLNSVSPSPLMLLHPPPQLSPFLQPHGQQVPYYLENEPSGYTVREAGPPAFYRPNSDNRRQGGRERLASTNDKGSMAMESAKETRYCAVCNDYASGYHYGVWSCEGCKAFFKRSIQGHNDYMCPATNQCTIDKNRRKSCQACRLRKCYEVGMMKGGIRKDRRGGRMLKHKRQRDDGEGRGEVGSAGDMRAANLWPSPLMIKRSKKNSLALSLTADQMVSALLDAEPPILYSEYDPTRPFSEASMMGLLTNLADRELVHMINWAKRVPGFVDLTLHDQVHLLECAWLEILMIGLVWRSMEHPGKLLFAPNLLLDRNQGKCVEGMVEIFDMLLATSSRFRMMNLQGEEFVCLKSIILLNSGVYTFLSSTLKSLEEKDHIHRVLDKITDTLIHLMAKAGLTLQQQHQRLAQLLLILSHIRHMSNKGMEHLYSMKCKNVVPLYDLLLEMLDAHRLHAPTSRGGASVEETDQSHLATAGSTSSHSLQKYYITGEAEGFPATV

[7] = biological target: Eukaryotic translation initiation factor 4H (Homo sapiens, UniProt Q15056); assay: human eIF4H binding inhibitors, primary screen, translation initiation inhibitor project, biochemical, uHTS, fluorescence polarization (AID 2012)
[8] = biological target: Polyadenylate-binding protein 1 (Homo sapiens, UniProt P11940); assay: PABP poly(A) RNA binding inhibitors, primary screen, biochemical, fluorescence polarization, uHTS (AID 2014)
Polyadenylate-binding protein 1, sequence (P11940 whole entry): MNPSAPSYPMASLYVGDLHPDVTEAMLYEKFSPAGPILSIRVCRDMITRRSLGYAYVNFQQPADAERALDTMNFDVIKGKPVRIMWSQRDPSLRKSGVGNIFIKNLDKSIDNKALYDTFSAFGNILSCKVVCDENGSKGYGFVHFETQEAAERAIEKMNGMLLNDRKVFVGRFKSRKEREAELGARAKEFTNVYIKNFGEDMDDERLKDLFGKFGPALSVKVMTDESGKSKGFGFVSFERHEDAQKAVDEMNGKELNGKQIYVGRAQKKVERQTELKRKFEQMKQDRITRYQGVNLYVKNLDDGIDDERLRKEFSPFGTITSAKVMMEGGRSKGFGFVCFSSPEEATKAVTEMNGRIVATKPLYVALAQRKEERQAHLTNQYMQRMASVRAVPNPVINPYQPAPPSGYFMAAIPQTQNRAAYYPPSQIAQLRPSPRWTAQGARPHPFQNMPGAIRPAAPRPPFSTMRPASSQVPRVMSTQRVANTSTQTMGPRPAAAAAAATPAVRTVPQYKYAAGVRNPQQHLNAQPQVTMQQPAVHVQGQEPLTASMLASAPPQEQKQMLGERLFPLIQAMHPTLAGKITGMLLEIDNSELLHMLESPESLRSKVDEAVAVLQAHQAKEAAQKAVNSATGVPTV

Tumor necrosis factor = Tumor necrosis factor (Homo sapiens, UniProt P01375); assay: TNFa-triggered NF-kB activation inhibitors, SAR follow-up, cell-based, revised (AID 2337); assay type: functional
Tumor necrosis factor, sequence (P01375 whole entry, the tested form may be a part): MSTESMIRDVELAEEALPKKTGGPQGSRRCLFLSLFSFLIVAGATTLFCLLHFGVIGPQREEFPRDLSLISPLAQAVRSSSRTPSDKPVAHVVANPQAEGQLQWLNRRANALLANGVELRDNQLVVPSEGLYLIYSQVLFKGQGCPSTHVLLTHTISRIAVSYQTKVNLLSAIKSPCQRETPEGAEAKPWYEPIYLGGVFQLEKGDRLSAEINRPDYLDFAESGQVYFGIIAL

[9] = biological target: T6, Nucleotide-binding oligomerization domain-containing protein 1 (Homo sapiens, UniProt Q9Y239); assay: NOD1 signaling inhibitors, SAR follow-up, revised (AID 2333); assay type: functional
T6 sequence (Q9Y239 whole entry): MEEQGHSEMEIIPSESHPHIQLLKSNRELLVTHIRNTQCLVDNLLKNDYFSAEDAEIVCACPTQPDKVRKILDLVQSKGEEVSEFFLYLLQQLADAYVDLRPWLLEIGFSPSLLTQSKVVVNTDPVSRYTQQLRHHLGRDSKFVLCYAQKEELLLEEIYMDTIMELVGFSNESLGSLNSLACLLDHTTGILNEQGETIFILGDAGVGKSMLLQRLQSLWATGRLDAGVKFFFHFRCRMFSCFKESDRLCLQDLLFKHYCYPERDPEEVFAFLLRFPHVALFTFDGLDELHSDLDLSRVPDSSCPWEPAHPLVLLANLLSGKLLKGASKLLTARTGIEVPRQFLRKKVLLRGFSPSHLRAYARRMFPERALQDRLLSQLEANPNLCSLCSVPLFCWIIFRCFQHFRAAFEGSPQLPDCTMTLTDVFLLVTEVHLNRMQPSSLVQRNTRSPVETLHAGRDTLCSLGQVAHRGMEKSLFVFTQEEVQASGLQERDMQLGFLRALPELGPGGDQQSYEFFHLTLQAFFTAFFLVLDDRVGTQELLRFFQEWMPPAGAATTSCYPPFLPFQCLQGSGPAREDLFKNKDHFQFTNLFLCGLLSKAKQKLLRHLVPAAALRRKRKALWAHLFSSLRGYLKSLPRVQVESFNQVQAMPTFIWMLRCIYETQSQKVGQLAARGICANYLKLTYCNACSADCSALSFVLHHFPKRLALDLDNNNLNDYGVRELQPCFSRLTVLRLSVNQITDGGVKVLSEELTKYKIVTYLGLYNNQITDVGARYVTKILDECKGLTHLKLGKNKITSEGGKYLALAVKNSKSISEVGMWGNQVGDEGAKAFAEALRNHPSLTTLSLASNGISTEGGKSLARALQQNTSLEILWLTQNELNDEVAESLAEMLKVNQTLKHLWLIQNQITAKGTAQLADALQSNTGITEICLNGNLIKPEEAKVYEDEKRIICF

[10] = biological target: Nucleotide-binding oligomerization domain-containing protein 2 (Homo sapiens, UniProt Q9HC29); assay: PubChem AID 2334; assay type: functional
Nucleotide-binding oligomerization domain-containing protein 2, sequence (Q9HC29 whole entry, the tested form may be a part): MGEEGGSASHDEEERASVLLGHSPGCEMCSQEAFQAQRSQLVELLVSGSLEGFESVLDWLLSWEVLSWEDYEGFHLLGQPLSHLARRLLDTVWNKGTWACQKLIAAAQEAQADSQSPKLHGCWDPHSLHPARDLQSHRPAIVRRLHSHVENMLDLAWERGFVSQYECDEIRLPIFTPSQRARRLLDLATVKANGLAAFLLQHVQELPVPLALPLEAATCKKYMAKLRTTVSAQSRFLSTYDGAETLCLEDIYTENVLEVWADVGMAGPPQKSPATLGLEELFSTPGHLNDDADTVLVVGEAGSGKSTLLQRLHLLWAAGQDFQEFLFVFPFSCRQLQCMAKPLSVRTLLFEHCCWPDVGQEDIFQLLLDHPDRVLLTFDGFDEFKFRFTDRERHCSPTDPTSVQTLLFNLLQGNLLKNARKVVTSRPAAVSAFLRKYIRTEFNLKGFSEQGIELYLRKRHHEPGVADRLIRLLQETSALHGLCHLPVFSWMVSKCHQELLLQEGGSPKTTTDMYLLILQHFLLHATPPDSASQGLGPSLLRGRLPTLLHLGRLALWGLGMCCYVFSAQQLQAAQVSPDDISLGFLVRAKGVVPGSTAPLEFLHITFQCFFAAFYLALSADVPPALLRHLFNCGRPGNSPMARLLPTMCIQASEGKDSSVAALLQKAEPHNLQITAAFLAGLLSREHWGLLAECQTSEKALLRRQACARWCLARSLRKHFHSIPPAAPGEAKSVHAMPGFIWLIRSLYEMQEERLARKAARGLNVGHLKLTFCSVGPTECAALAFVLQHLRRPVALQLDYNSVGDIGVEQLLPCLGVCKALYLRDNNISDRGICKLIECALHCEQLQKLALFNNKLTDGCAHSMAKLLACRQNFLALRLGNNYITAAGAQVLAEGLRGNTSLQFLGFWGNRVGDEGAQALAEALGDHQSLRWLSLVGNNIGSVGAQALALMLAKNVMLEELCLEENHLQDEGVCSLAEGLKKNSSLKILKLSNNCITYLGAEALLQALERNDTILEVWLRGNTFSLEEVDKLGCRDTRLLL

HEK293 [11] = assay: cells; details: Homo sapiens
[12] = system: Streptococcus sp. 'group A'; assay: growth inhibition of control SK(-) GAS strain, dose response, counter-screen for streptokinase expression inhibitor project, luminescence, kanamycin, BacTiterGlo, confirmation (AID 1900); assay type: functional, organism-based
Streptococcus = assay: Group A Streptococcus viability loss, dose response, counter-screen for streptokinase expression inhibitor project, luminescence, BacTiterGlo (AID 1915); assay type: functional, organism-based;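 further: potency for reduction of bacterial viability or growth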
HEK293 [13] = assay: NOD1 signaling inhibitors, primary screen, cell-based, luminescence, uHTS (AID 1578); assay type: functional; details: Homo sapiens
HEK293 [14] = assay: cells; assay type: functional, cell-based; details: Homo sapiens
HEK293 [15] = assay: cells; assay type: functional, cell-based; details: Homo sapiens; remark: listed apart in the source
HEK293 [16] = assay: NOD2 signaling inhibitors in MDP-stimulated cells, cell-based, uHTS, luminescence (AID 2001); assay type: functional; details: Homo sapiens

With `O=C(Nc1ccccc1-c1ccccc1)NC1CC2CCCC(C1)N2CCc1ccccc1` (configuration not stated) the EC50 [1] was 51.2 µM (not active).
For `C=CCSC1=Nc2sccc2C2=NC(=O)CN12`, the EC50 [2] was 18.5 µM (active) and the EC50 [1] was > 100 µM (not active).
With `Oc1ccc2ccccc2c1C1Nc2cccc3cccc(c23)N1` the IC50 [3] was > 100 µM (active), the CC50 [4] was > 40 µM (active) and the IC50 (Protein Tat) was 41.7 µM (inconclusive). The CC50 [5] was > 40 µM (active).
For `O=C(c1cnc2n(c1=O)CCS2)N(C1CCCCC1)C1CCCCC1`, the IC50 (Aminopeptidase N) was 149 µM (active).
For `Cc1ccc(-n2c3nc(=O)[nH]c(=O)c-3cc3cc([N+](=O)[O-])ccc32)cc1C`, the IC50 (Hexokinase HKDC1) was 6.47 µM (active), the CC50 (Vero) was 29.7 µM (active) and the IC50 (Genome polyprotein) was 65.1 µM (active). For the same compound, the EC50 [6] was 10 µM (active).
With `O=C(Cn1c(=O)oc2cc(S(=O)(=O)N3CCCCCC3)ccc21)NC1CCCCC1` the EC50 (Estrogen receptor) was 12.9 µM (not active).
In the case of `Cc1ccccc1N(C)S(=O)(=O)c1nnc(NC(=O)c2ccco2)s1`, the IC50 [7] is reported as 25.9 µM (active) and the IC50 [8] is reported as 67.8 µM (active).
In the case of `COc1ccccc1-c1nnc(SC/C(O)=C(\C#N)c2nc3ccccc3[nH]2)n1C1CCCCC1`, the IC50 (Aminopeptidase N) is reported as 52.2 µM (active).
For `O=C(Nc1nc2ccccc2n1Cc1ccc(Cl)cc1)c1cccs1`, the IC50 (Tumor necrosis factor) was > 20 µM (inactive), the IC50 [9] was > 20 µM (inactive) and the IC50 [10] was > 20 µM (inactive). The IC50 (HEK293 [11]) was > 20 µM (inactive).
In the case of `CC(=O)NC(=S)Nc1ccc(NC(=S)NC(=O)/C=C/c2ccco2)cc1`, the IC50 [7] is reported as 36.7 µM (active), the EC50 [12] is reported as 2.69 µM (active) and the EC50 (Streptococcus) is reported as 5.33 µM (active). For the same compound, the IC50 [8] was > 100 µM (inactive).
With `C=CCN(c1ccccc1OC)S(=O)(=O)c1ccc(Cl)c(C(=O)Nc2ccc(N3CCOCC3)cc2)c1` the EC50 (HEK293 [13]) was 12 µM (active), the IC50 (HEK293 [14]) was > 20 µM (inactive) and the IC50 (HEK293 [15]) was > 20 µM (inactive). The IC50 (HEK293 [16]) was 14.4 µM (inactive), the IC50 (Tumor necrosis factor) was 13.2 µM (active) and the IC50 [9] was 14 µM (active). For the same compound, the IC50 [10] was 10.4 µM (active) and the IC50 (HEK293 [11]) was > 20 µM (inactive).
